These results are taken from patent US20260097047A1, “Small molecule inhibitors of the ribosome biogenesis factor NVL2” (Board of Regents, The University of Texas System, priority 2023, published 2026).

In one experiment the test system is HCT116 cells. The experiment is described as follows: Cell viability assay (CellTiter-Glo, 72 hours) in HCT116 human colorectal cancer cells. The format is cell-based. The note with it: Homo sapiens, HCT-116; Table 5; HCT116, 72 hours; read-out: Activity. The method, boiled down: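 2,000 cells/well adhered overnight, then compound added by digital dispenser with DMSO normalized to 0.5%. Viability read after 72 h at 37 °C by ATP-based CellTiter-Glo luminescence. IC50 from ten-point curves baseline-corrected to vehicle, five-parameter asymmetric least-squares fit.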
In general terms: In ATP-based viability assays light output follows the ATP content of the culture.
For `CC#CCN1C(=O)c2ccccc2Sc2cc(Nc3cnn(C)c3)ccc21` [10-(But-2-yn-1-yl)-7-((1-methyl-1H-pyrazol-4-yl)amino)dibenzo[b,f][1,4]thiazepin-11 (10H)-one], the IC50 is less than 500 nM.
On the same count and under the same terms, with `CC#CCN1C(=O)c2ccc(F)cc2Sc2cc(Nc3ncccc3OC)ccc21` [10-(But-2-yn-1-yl)-3-fluoro-7-((3-methoxypyridin-2-yl)amino)dibenzo[b,f][1,4]thiazepin-11 (10H)-one] the figure was less than 500 nM; with `CCC/C=C/CN1C(=O)c2ccccc2Sc2cc(Nc3cc(C#N)ccn3)ccc21` [(E)-2-((10-(Hex-2-en-1-yl)-11-oxo-10,11-dihydrodibenzo[b,f][1,4]thiazepin-7-yl)amino) isonicotinonitrile], 500 to 1000 nM; with `CC#CCN1C(=O)c2ccccc2Sc2cc(Nc3nccc(C#N)c3F)ccc21` [2-((10-(But-2-yn-1-yl)-11-oxo-10,11-dihydrodibenzo[b,f][1,4]thiazepin-7-yl)amino)-3-fluoroisonicotinonitrile], less than 500 nM.
Still for that read-out and setting: under `CC#CCN1C(=O)c2ccccc2Sc2cc(Nc3cc(C)cnn3)ccc21` [10-(But-2-yn-1-yl)-7-((5-methylpyridazin-3-yl)amino)dibenzo[b,f][1,4]thiazepin-11 (10H)-one] stands less than 500 nM; under `CC#CCN1C(=O)c2ccccc2Sc2cc(Nc3ccc(C#N)nn3)ccc21` [6-((10-(But-2-yn-1-yl)-11-oxo-10,11-dihydrodibenzo[b,f][1,4]thiazepin-7-yl)amino)pyridazine-3-carbonitrile], less than 500 nM.
Same read-out and setting: under `CCC/C=C/CN1C(=O)c2ccccc2Sc2cc(Nc3cc(OC)ccn3)ccc21` [(E)-10-(Hex-2-en-1-yl)-7-((4-methoxypyridin-2-yl)amino)dibenzo[b,f][1,4]thiazepin-11 (10H)-one] stands less than 500 nM; under `CC#CCN1C(=O)c2ccc(F)cc2Sc2cc(Nc3nccnc3OC)ccc21` [10-(But-2-yn-1-yl)-3-fluoro-7-((3-methoxypyrazin-2-yl)amino)dibenzo[b,f][1,4]thiazepin-11 (10H)-one], 500 to 1000 nM.

Staying with this experiment, now noted: Homo sapiens, HCT-116; Table 6; HCT116, 72 hours; read-out: Activity.
For the molecule `CC#CCN1C(=O)c2ccccc2Sc2cc(NC3CCCC3)cnc21` [Table 6: —CH2CCMe; cPent; CH/N; S, 11-(But-2-yn-1-yl)-3-(cyclopentylamino)benzo[f]pyrido[3,2-b][1,4]thiazepin-10(11H)-one], the IC50 is less than 500 nM.

Still in this experiment, the particulars now being: Homo sapiens, HCT-116; Table 9; HCT116, 72 hours; read-out: Activity.
For the molecule `COc1ccc(C(=O)Nc2ccc3c(c2)Cc2ccccc2C(=O)N3CC#CC(F)(F)F)cc1` [Table 9: —CH2CCCF3; 4-MeOPh; CH2, 4-Methoxy-N-(6-oxo-5-(4,4,4-trifluorobut-2-yn-1-yl)-6, 11-dihydro-5H-dibenzo[b,e]azepin-2-yl)benzamide], the IC50 was less than 500 nM.

Staying with this experiment, now noted: Table 1; HCT116, 72 hours; read-out: Activity.
`CC#CCN1C(=O)c2ccc(Cl)cc2Sc2cc(NC(=O)N3CCC3)ccc21`: the IC50 is less than 500 nM.

Still in this experiment, the particulars now being: Table 4; HCT116, 72 hours; read-out: Activity.
On to `CC#CCN1C(=O)c2ccccc2Sc2cc(NC(=S)Nc3ccc4scnc4c3)cnc21`, for which the IC50 is less than 500 nM.
On to `CC#CCN1C(=O)c2ccccc2Sc2cc(NC(=S)N[C@H]3C[C@@H](OC)C3)ccc21` [Table 4: —CH2CCMe; cis-3-MeOcBu; CH], for which the IC50 is less than 500 nM.

The same experiment, now with this note: Table 5; HCT116, 72 hours; read-out: Activity.
As to `CC#CCN1C(=O)c2ccccc2Sc2cc(Nc3nnccc3C)cnc21`, the IC50 was less than 500 nM.
Still for that read-out and setting: under `CC=CCN1C(=O)c2ccccc2Sc2cc(Nc3ncccc3C#N)cnc21` stands less than 500 nM; under `CC#CCN1C(=O)c2ccccc2Sc2cc(Nc3ncccc3F)cnc21`, less than 500 nM.
For `CCC/C=C/CN1C(=O)c2ccccc2Sc2cc(Nc3cc(C(F)(F)F)ccn3)ccc21` [(I)-10-(Hex-2-en-1-yl)-7-((4-(trifluoromethyl)pyridin-2-yl)amino)dibenzo[b,f][1,4]thiazepin-11 (10H)-one], the IC50 was 1000 to 5000 nM.
For `C#CCN1C(=O)c2ccccc2Sc2cc(Nc3nc(C)cnc3C)cnc21`, the IC50 was less than 500 nM.

Still in this experiment, the particulars now being: Table 6; HCT116, 72 hours; read-out: Activity.
As for `C#CCN1C(=O)c2ccccc2Sc2cc(NC3CC4(COC4)C3)cnc21`, the IC50 is less than 500 nM.

Staying with this experiment, now noted: Table 7; cell viability assay, CellTiter-Glo, 72 hours; scaffold drawing 42 with R^2, R^3, X/Y, Z; read-out: Activity.
For the molecule `C#CCOCCN1C(=O)c2ccccc2Sc2cc(NC(=O)c3cccc(CCC#N)c3)ccc21` [—(CH2)2OCH2CCH; 3-(2′-CNEt)Ph; CH/CH; S], the IC50 is less than 500 nM.
Same read-out and setting: under `COCCN1C(=O)c2ccccc2Cc2cc(NC(=O)c3ccoc3)ccc21` [—(CH2)2OMe; furan-3-yl; CH/CH; CH2] stands 1000 to 5000 nM.
The same measure, in the same setting: under `CCCOc1ccc(C(=O)Nc2ccc3c(c2)Sc2ccccc2C(=O)N3CCOC)cc1` [—(CH2)2OMe; 4-PrOPh; CH/CH; S] stands 1000 to 5000 nM.
The same measure, in the same setting: under `COCCN1C(=O)c2ccccc2Sc2cc(NC(=O)c3ccncc3)ccc21` [—(CH2)2OMe; pyrid-4-yl; CH/CH; S] stands 1000 to 5000 nM; under `COCCN1C(=O)c2ccccc2Sc2cc(NC(=O)c3ccc(CN)cc3)ccc21` [—(CH2)2OMe; 4-(NH2CH2)Ph; CH/CH; S], 1000 to 5000 nM; under `COCCN1C(=O)c2ccccc2Sc2cc(NC(=O)C3CCC3)ccc21` [—(CH2)2OMe; cBu; CH/CH; S], 500 to 1000 nM.
Turning to `COCCN1C(=O)c2ccccc2Sc2cc(NC(=O)c3ccc(OC(F)(F)F)cc3)ccc21` [—(CH2)2OMe; 4-CF3OPh; CH/CH; S], the IC50 lay in the range of 1000 to 5000 nM.
Same read-out and setting: with `COCCN1C(=O)c2ccccc2Sc2cc(NC(=O)c3ccc(OC)cc3F)ccc21` [—(CH2)2OMe; 2-F,4-MeOPh; CH/CH; S] the figure was 500 to 1000 nM.

The same experiment, now with this note: Table 8; analogs of scaffold drawing 43 defined by R^2, R^3, X/Y, W; read-out: Activity (IC50 class, cell viability assay).
With `CC#CCN1C(=O)c2ccccc2Sc2cc(NC(=O)CCCO)cnc21` [—CH2CCMe; (CH2)3 OH; CH/CH; N], the IC50 is less than 500 nM.
Same read-out and setting: with `CC#CCN1C(=O)c2ccccc2Sc2cc(NC(=O)C3CC4(CC(=O)C4)C3)cnc21` the figure was less than 500 nM.
`CC#CCN1C(=O)c2ccccc2Sc2cc(NC(=O)[C@H]3C[C@@H](O)C3)ccc21` [—CH2CCMe; cis-3-OH-cBu; CH/CH; CH]: the IC50 is less than 500 nM.
For `CC#CCN1C(=O)c2ccccc2Sc2cc(NC(=O)C3CCOC3)ccc21` (stereo not shown), the IC50 was less than 500 nM.
Turning to `C#CCN1C(=O)c2ccc(Cl)cc2Sc2cc(NC(=O)[C@@H]3C[C@H]3COC)ccc21` (relative stereo) [—CH2CCH; trans-2-MeOCH2-cPr; CCl/CH; CH], the IC50 was less than 500 nM.
Regarding `CC#CCN1C(=O)c2ccc(Cl)cc2Sc2cc(NC(=O)CCCO)ccc21` [—CH2CCMe; (CH2)3OH; CCl/CH; CH], the IC50 is less than 500 nM.
As for `CC#CCN1C(=O)c2ccccc2Sc2cc(NC(=O)c3ccc(OC)cc3)cnc21` [—CH2CCMe; 4-MeOPh; CH/CH; N], the IC50 is less than 500 nM.
On the same count and under the same terms, under `CC12CC(C(=O)Nc3cnc4c(c3)Sc3ccccc3C(=O)N4CC#CC3CC3)(C1)C2` stands less than 500 nM; under `CC#CCN1C(=O)c2ccccc2Sc2cc(NC(=O)CC3COC3)ccc21` [—CH2CCMe; (oxetan-3-yl)CH2; CH/CH; CH], less than 500 nM.
In the case of `COCC1CC1C(=O)Nc1cnc2c(c1)Sc1ccccc1C(=O)N2CC#CC1CC1` (racemic) [—CH2CC^cPr; trans-2-MeOCH2-cPr; CH/CH; N], the IC50 was less than 500 nM.
As to `CC#CCN1C(=O)c2ccccc2Sc2cc(NC(=O)C3CC4(CC(=NO)C4)C3)cnc21` (stereo not shown), the IC50 was less than 500 nM.
`CC#CCN1C(=O)c2ccccc2Sc2cc(NC(=O)C3CC4(COC4)C3)cnc21`: the IC50 is less than 500 nM.
For `CO[C@H]1C[C@@H](C(=O)Nc2ccc3c(c2)Sc2ccc(F)cc2C(=O)N3CC#CCl)C1` [—CH2CCCl; cis-3-MeOcBu; CH/CF; CH], the IC50 was less than 500 nM.
With `CC#CCN1C(=O)c2ccccc2Sc2cc(NC(=O)c3ccc(OC)nc3)cnc21` [—CH2CCMe; 6-MeO-pyrid-3-yl; CH/CH; N], the IC50 was less than 500 nM.
The same measure, in the same setting: under `CC#CCN1C(=O)c2ccc(Cl)cc2Sc2cc(NC(=O)C3CC4(CC(=NO)C4)C3)ccc21` (stereo not shown) stands less than 500 nM; under `O=C(Nc1cnc2c(c1)Sc1ccccc1C(=O)N2CC#CCl)C1CC2(CC(=NO)C2)C1` (stereo not shown), less than 500 nM; under `CON=C1CC2(C1)CC(C(=O)Nc1cnc3c(c1)Sc1cc(Cl)ccc1C(=O)N3CC#CCl)C2` (stereo not shown), less than 500 nM.
On the same count and under the same terms, with `CC#CCN1C(=O)c2ccccc2Sc2cc(NC(=O)C3CCCCC3)cnc21` [—CH2CCMe; cHex; CH/CH; N] the figure was less than 500 nM.

The same experiment, now with this note: Table 9; HCT116, 72 hours; read-out: Activity.
With `CC#CCN1C(=O)c2ccccc2C(C)c2cc(NC(=O)C34CC(OC)(C3)C4)ccc21` (stereo not shown), the IC50 is less than 500 nM.
For `COCC1CC(C(=O)Nc2ccc3c(c2)C(C#N)c2ccccc2C(=O)N3CC#CC2CC2)C1` (stereo not shown) [Table 9: —CH2CCcPr; 3-MeOCH2-cBu; CHCN], the IC50 was less than 500 nM.
As to `CO[C@H]1C[C@@H](C(=O)Nc2ccc3c(c2)C(C#N)c2ccccc2C(=O)N3CC#CC2CC2)C1` (stereo partly drawn) [Table 9: —CH2CCºPr; cis-3-MeOcBu; CHCN], the IC50 was less than 500 nM.
On the same count and under the same terms, under `N#CC1c2ccccc2C(=O)N(CC#CC2CC2)c2ccc(NC(=O)[C@H]3C[C@@H]3CO)cc21` (relative stereo) stands less than 500 nM; under `CC#CCN1C(=O)c2ccccc2Cc2cc(NC(=O)C34CC(OC)(C3)C4)ccc21`, less than 500 nM.
Still for that read-out and setting: under `CC#CCN1C(=O)c2ccccc2C(C)c2cc(NC(=O)C3COC3)ccc21` (stereo not shown) [Table 9: —CH2CCMe; oxetan-3-yl; CHMe] stands less than 500 nM; under `CC#CCN1C(=O)c2ccccc2C(C)c2cc(NC(=O)[C@@H]3C[C@H]3COC)ccc21` (relative stereo), less than 500 nM; under `CC#CCN1C(=O)c2ccccc2Cc2cc(NC(=O)[C@H]3C[C@@H](OC)C3)ccc21` [Table 9: —CH2CCMe; cis-3-MeOcBu; CH2], less than 500 nM.
As to `COC12CC(C(=O)Nc3ccc4c(c3)C(C)c3ccccc3C(=O)N4CC#CC3CC3)(C1)C2` (stereo not shown), the IC50 is less than 500 nM.
On the same count and under the same terms, under `CC#CCN1C(=O)c2ccccc2C(C)c2cc(NC(=O)[C@@H]3C[C@H]3C(=O)OC)ccc21` (relative stereo) stands less than 500 nM.
